Measurements as given in ChEMBL document CHEMBL1201861, “Genomics of Drug Sensitity in Cancer screening data, Wellcome Trust Sanger Institute”.
pIC50: −log10 of the molar value.

Legend:
Test in all cases: cells
NCI-H2347 = type: functional, cell-based, Homo sapiens; conditions: Homo sapiens, NCI-H2347
K5 = type: functional, cell-based, Homo sapiens; conditions: Homo sapiens, K5
HCC1395 = type: functional, cell-based, Homo sapiens; conditions: Homo sapiens, HCC1395
SNU-387 = type: functional, cell-based, Homo sapiens; conditions: Homo sapiens, SNU-387
JEG-3 = type: functional, cell-based, Homo sapiens; conditions: Homo sapiens, JEG-3
CHL-1 = type: functional, cell-based, Homo sapiens; conditions: Homo sapiens, CHL-1
CP50-MEL-B = type: functional, cell-based, Homo sapiens; conditions: Homo sapiens, CP50-MEL-B
D-263MG = type: functional, cell-based, Homo sapiens; conditions: Homo sapiens, D-263MG
CAL-72 = type: functional, cell-based, Homo sapiens; conditions: Homo sapiens, CAL-72
5637 = type: functional, cell-based, Homo sapiens; conditions: Homo sapiens
ONS-76 = type: functional, cell-based, Homo sapiens; conditions: Homo sapiens, ONS-76
HuTu80 = type: functional, cell-based, Homo sapiens, HUTU-80; conditions: Homo sapiens, HuTu80
KU812 cell line = type: functional, cell-based; conditions: Homo sapiens
IA-LM = type: functional, cell-based, Homo sapiens; conditions: Homo sapiens, IA-LM
BB30-HNC = type: functional, cell-based, Homo sapiens; conditions: Homo sapiens, BB30-HNC
TK-10 = type: functional, cell-based, Homo sapiens; conditions: Homo sapiens, TK-10
NCI-H2052 = type: functional, cell-based, Homo sapiens; conditions: Homo sapiens, NCI-H2052
SKG-IIIa = type: functional, cell-based, Homo sapiens; conditions: Homo sapiens, SKG-IIIa
NCI-H596 = type: functional, cell-based, Homo sapiens; conditions: Homo sapiens, NCI-H596
TE-10 = type: functional, cell-based, Homo sapiens; conditions: Homo sapiens, TE-10
NCI-H1755 = type: functional, cell-based, Homo sapiens; conditions: Homo sapiens, NCI-H1755
RPMI-8866 = type: functional, cell-based; conditions: Homo sapiens
P12-Ichikawa = type: functional, cell-based; conditions: Homo sapiens
NCI-H747 = type: functional, cell-based; conditions: Homo sapiens
IGROV-1 = type: functional, cell-based, Homo sapiens; conditions: Homo sapiens, IGROV-1
BXPC-3 = type: functional, cell-based, Homo sapiens; conditions: Homo sapiens, BXPC-3
OAW-42 = type: functional, cell-based, Homo sapiens; conditions: Homo sapiens, OAW-42
HuCCT-1 = type: functional, cell-based, Homo sapiens, HuCCT1; conditions: Homo sapiens, HuCCT-1
CTB-1 = type: functional, cell-based; conditions: Homo sapiens
MHH-PREB-1 = type: functional, cell-based; conditions: Homo sapiens
HT-144 = type: functional, cell-based, Homo sapiens; conditions: Homo sapiens, HT-144
HL-60 = type: functional, cell-based; conditions: Homo sapiens
HCC1187 = type: functional, cell-based, Homo sapiens; conditions: Homo sapiens, HCC1187
HCE-4 = type: functional, cell-based, Homo sapiens; conditions: Homo sapiens, HCE-4
NCI-H661 = type: functional, cell-based, Homo sapiens; conditions: Homo sapiens, NCI-H661
MPP-89 = type: functional, cell-based, Homo sapiens; conditions: Homo sapiens, MPP-89
HOS = type: functional, cell-based, Homo sapiens; conditions: Homo sapiens, HOS
NCI-H720 = type: functional, cell-based; conditions: Homo sapiens
8-MG-BA = type: functional, cell-based, Homo sapiens; conditions: Homo sapiens, 8-MG-BA
GAK = type: functional, cell-based, Homo sapiens; conditions: Homo sapiens, GAK
KG-1 = type: functional, cell-based; conditions: Homo sapiens
MDA-MB-157 = type: functional, cell-based, Homo sapiens; conditions: Homo sapiens, MDA-MB-157
SCC-25 = type: functional, cell-based, Homo sapiens; conditions: Homo sapiens, SCC-25
A 172 = type: functional, cell-based, Homo sapiens; conditions: Homo sapiens, A 172
SBC-5 = type: functional, cell-based, Homo sapiens; conditions: Homo sapiens, SBC-5
GI-1 = type: functional, cell-based, Homo sapiens; conditions: Homo sapiens, GI-1
BFTC-905 = type: functional, cell-based, Homo sapiens; conditions: Homo sapiens, BFTC-905
SK-MEL-24 = type: functional, cell-based; conditions: Homo sapiens
NCI-H1651 = type: functional, cell-based, Homo sapiens; conditions: Homo sapiens, NCI-H1651
T-24 = type: functional, cell-based, Homo sapiens; conditions: Homo sapiens, T-24
NCI-H23 = type: functional, cell-based, Homo sapiens; conditions: Homo sapiens, NCI-H23

## Cc1ccc(Nc2nccc(N(C)c3ccc4c(C)n(C)nc4c3)n2)cc1S(N)(=O)=O [PAZOPANIB]
NCI-H2347
  pIC50: […]
K5
  pIC50: […]
HCC1395
  pIC50: 5.59
SNU-387
  pIC50: […]
JEG-3
  pIC50: […]
CHL-1
  pIC50: […]
CP50-MEL-B
  pIC50: […]
D-263MG
  pIC50: […]
CAL-72
  pIC50: 5.23
5637
  pIC50: […]
ONS-76
  pIC50: […]
HuTu80
  pIC50: 5.89
KU812 cell line
  pIC50: 5.27
IA-LM
  pIC50: […]
BB30-HNC
  pIC50: […]
TK-10
  pIC50: […]
NCI-H2052
  pIC50: […]
SKG-IIIa
  pIC50: […]
NCI-H596
  pIC50: […]
TE-10
  pIC50: […]
NCI-H1755
  pIC50: […]
RPMI-8866
  pIC50: […]
P12-Ichikawa
  pIC50: […]
NCI-H747
  pIC50: […]
IGROV-1
  pIC50: 5.49
BXPC-3
  pIC50: […]
OAW-42
  pIC50: […]
HuCCT-1
  pIC50: […]
CTB-1
  pIC50: […]
MHH-PREB-1
  pIC50: […]
HT-144
  pIC50: […]
HL-60
  pIC50: […]
HCC1187
  pIC50: […]
HCE-4
  pIC50: […]
NCI-H661
  pIC50: […]
MPP-89
  pIC50: […]
HOS
  pIC50: […]
NCI-H720
  pIC50: […]
8-MG-BA
  pIC50: […]
GAK
  pIC50: […]
KG-1
  pIC50: 6.14
MDA-MB-157
  pIC50: […]
SCC-25
  pIC50: […]
A 172
  pIC50: 5.43
SBC-5
  pIC50: […]
GI-1
  pIC50: 5.65
BFTC-905
  pIC50: […]
SK-MEL-24
  pIC50: […]
NCI-H1651
  pIC50: […]
T-24
  pIC50: […]
NCI-H23
  pIC50: […]

## CC(=O)O[C@@H]1[C@@H](OC(C)=O)[C@@H](O)[C@H](Oc2c(-c3ccc(O)cc3)oc3cc(O)cc(O)c3c2=O)O[C@H]1C
NCI-H2347
  pIC50: < 5.00
K5
  pIC50: < 5.00
HCC1395
  pIC50: < 5.00
SNU-387
  pIC50: < 5.00
JEG-3
  pIC50: < 5.00
CHL-1
  pIC50: < 5.00
CP50-MEL-B
  pIC50: < 5.00
D-263MG
  pIC50: < 5.00
CAL-72
  pIC50: 5.41
5637
  pIC50: < 5.00
ONS-76
  pIC50: < 5.00
HuTu80
  pIC50: < 5.00
KU812 cell line
  pIC50: < 5.00
IA-LM
  pIC50: < 5.00
BB30-HNC
  pIC50: < 5.00
TK-10
  pIC50: < 5.00
NCI-H2052
  pIC50: < 5.00
SKG-IIIa
  pIC50: < 5.00
NCI-H596
  pIC50: < 5.00
TE-10
  pIC50: < 5.00
NCI-H1755
  pIC50: < 5.00
RPMI-8866
  pIC50: < 5.00
P12-Ichikawa
  pIC50: < 5.00
NCI-H747
  pIC50: < 5.00
IGROV-1
  pIC50: < 5.00
BXPC-3
  pIC50: < 5.00
OAW-42
  pIC50: < 5.00
HuCCT-1
  pIC50: < 5.00
CTB-1
  pIC50: 5.14
MHH-PREB-1
  pIC50: < 5.00
HT-144
  pIC50: < 5.00
HL-60
  pIC50: < 5.00
HCC1187
  pIC50: < 5.00
HCE-4
  pIC50: < 5.00
NCI-H661
  pIC50: < 5.00
MPP-89
  pIC50: < 5.00
HOS
  pIC50: < 5.00
NCI-H720
  pIC50: < 5.00
8-MG-BA
  pIC50: < 5.00
GAK
  pIC50: < 5.00
KG-1
  pIC50: < 5.00
MDA-MB-157
  pIC50: < 5.00
SCC-25
  pIC50: < 5.00
A 172
  pIC50: 5.32
SBC-5
  pIC50: < 5.00
GI-1
  pIC50: < 5.00
BFTC-905
  pIC50: < 5.00
SK-MEL-24
  pIC50: < 5.00
NCI-H1651
  pIC50: < 5.00
T-24
  pIC50: < 5.00
NCI-H23
  pIC50: < 5.00
